Patent publication US20200131144A1, “AMINE OR (THIO)AMIDE CONTAINING LXR MODULATORS” (Phenex-FXR GmbH, priority 2017, published 2020)
Like-named read-outs stand apart in the source and are kept apart here.

How the values were obtained:
[1] = Short term HFD mouse model: liver and plasma exposure after multiple oral dosing; type: in vivo, mice (C57BL/6J); conditions: C57BL/6J, HFD mice, 4 h after final dose; for Kp at 4 h: liver/plasma, read-out: liver/plasma ratio, 4 h
From the text: Short Term HFD Mouse Model:
For this, C57BL/6J were purchased from Elevage Janvier (Rennes, France) at the age of 8 weeks. After an acclimation period of two weeks, animals were prefed on a high fat diet (HFD) (Ssniff Spezialdiäten GmbH, Germany, Surwit EF D12330 mod, Cat. No. E15771-34), with 60 kcal % from fat plus 1% (w/w) extra cholesterol (Sigma-Aldrich, St. Louis, Mo.) for 5 days. Animals were maintained on this diet during treatment with LXR modulators. The test compounds were formulated in 0.5% hydroxypropylmethylcellulose (HPMC) and administered in three doses (from 1.5 to 20 mg/kg each) by oral gavage according to the following schedule: on day one, animals received treatment in the morning and the evening (ca. 17:00), on day two animals received the final treatment in the morning after a 4 h fast and were sacrificed 4 h thereafter. Animal work was conducted according to the national guidelines for animal care in Germany.
Multiple oral dosing of compounds from the present invention in mice lead to a high liver exposure with a favourable liver to plasma ratio. […] These genes are related to hepatic de-novo lipogenesis. A suppression of these genes will reduce liver fat (liver triglycerides).

[2] = Pharmacokinetics in mice after single oral dosing, blood and liver exposure by LC-MS; type: in vivo, mice (C57/bl6/J); conditions: single oral dose 20 mg/kg; for Kp at 4 h / Kp at 24 h / Kp at 12 h: male, C57/bl6/J, mouse, liver/blood, read-out: liver/blood ratio
In short: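 Male C57BL/6J mice fasted ≥12 h, given a single oral dose of 20 mg/kg (n=3 per group). Sacrifice at 4, 12 or 24 h post-dose; liver and blood levels quantified by LC-MS.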

[3] = molecular target: T1, GST-LXRβ ligand-binding domain (Homo sapiens, UniProt P55055, INS174Q); test: TR-FRETβ activity assay (NCoA3 coactivator peptide recruitment); type: biochemical; conditions: 1 μM 24(S)-25-epoxycholesterol as prestimulating agonist; inverse agonist unless *
T1 construct: amino acids 156-461; NP009052; made in house; host or cells: E. coli
T1 sequence (P55055 with tags, fused parts or gaps INS174Q limits assumed): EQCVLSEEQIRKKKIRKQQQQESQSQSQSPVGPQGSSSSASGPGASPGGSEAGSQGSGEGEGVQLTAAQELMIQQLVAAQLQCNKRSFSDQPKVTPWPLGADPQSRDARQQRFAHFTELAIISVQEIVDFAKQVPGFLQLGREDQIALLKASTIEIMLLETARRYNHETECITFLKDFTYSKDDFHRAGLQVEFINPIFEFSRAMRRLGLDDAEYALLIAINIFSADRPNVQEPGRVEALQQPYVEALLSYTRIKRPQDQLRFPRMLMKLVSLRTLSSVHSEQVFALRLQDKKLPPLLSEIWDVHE
In short: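 E. coli-expressed GST-LXRβ LBD (aa 156-461, 76 nM) with biotinylated NCoA3 peptide (400 nM), anti-GST-Tb cryptate donor and streptavidin-XL665 acceptor in 240 mM KCl, BSA, 0.002% Triton X-100. Equilibrated 1 h at 4° C; TR-FRET read at 615/665 nm, triplicates.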

[4] = liver, three oral doses of 10 mg/kg each, read-out: liver exposure, 4 h
[5] = three oral doses of 10 mg/kg each
[6] = plasma, three oral doses of 10 mg/kg each, read-out: plasma exposure, 4 h
[7] = liver, three oral doses of 20 mg/kg each, read-out: liver exposure, 4 h
[8] = three oral doses of 20 mg/kg each
[9] = plasma, three oral doses of 20 mg/kg each, read-out: plasma exposure, 4 h
[10] = liver, three oral doses of 1.5 mg/kg each, read-out: liver exposure, 4 h
[11] = three oral doses of 1.5 mg/kg each
[12] = plasma, three oral doses of 1.5 mg/kg each, read-out: plasma exposure, 4 h

| SMILES | concentration at 4 h [1, 4] [µM] | Kp at 4 h [1, 5] | concentration at 4 h [1, 6] [µM] | Kp at 4 h ([2]; time point 4 h) | blood/plasma exposure ([2]; time point 4 h) [µM] | liver exposure ([2]; time point 4 h) [µM] | EC50 [3] [nM] | concentration at 4 h [1, 7] [µM] | Kp at 4 h [1, 8] | concentration at 4 h [1, 9] [µM] | other results |
| --- | --- | --- | --- | --- | --- | --- | --- | --- | --- | --- | --- |
| Cc1ccc2ccccc2c1C(=O)N(Cc1ccc(C(F)(F)F)o1)Cc1ncc(-c2cccc(C(C)(C)C(=O)O)c2)cc1Cl [27/78] | 18.4 | 61.3 | 0.3 | 116 | 0.35 | 40.9 | < 100 | – | – | – | – |
| Cc1ccc2ccccc2c1C(=O)N(Cc1ccc(-c2cccc(S(=O)(=O)CC(=O)O)c2)cc1)Cc1ccc(C(F)(F)F)o1 [Example 9] | – | – | – | 72 | 0.18 | 12.7 | 1000 to 10000 | 18.2 | 135 | 0.134 | Kp at 24 h ([2]; time point 24 h): 25; blood/plasma exposure ([2]; time point 24 h): 0.00 µM; liver exposure ([2]; time point 24 h): 0.10 µM |
| CCOC(=O)c1ccc(CN(Cc2ccc(-c3cccc(C(C)(C)C(=O)O)c3)cc2)C(=O)c2c(C)ccc3ccccc23)o1 [27/28] | – | – | – | 844 | 0.05 | 38.8 | < 100 | 13.8 | 1790 | 0.008 | concentration at 4 h [1, 10]: 4.3 µM; Kp at 4 h [1, 11]: 600; concentration at 4 h [1, 12]: 0.007 µM |
| Cc1ccc2ccccc2c1C(=O)N(Cc1ccc(-c2cc(F)cc(C3(C(=O)O)CC3)c2)cc1)Cc1ccc(C(F)(F)F)o1 [27/76] | 37.9 | 16.4 | 2.31 | – | – | – | 100 to 1000 | – | – | – | – |
| Cc1ccc2ccccc2c1CN(Cc1ccc(-c2cccc(C(C)(C)C(=O)O)c2)cc1)Cc1ccc(C(F)(F)F)o1 [Example 24, 2-Methyl-2-(4′-((((2-methylnaphthalen-1-yl)methyl)((5-(trifluoromethyl)furan-2-yl)methyl)amino)methyl)-[1,1′-biphenyl]-3-yl)propanoic acid] | – | – | – | 11 | 0.96 | 10.3 | < 100 | 8.93 | 2.5 | 3.52 | concentration at 4 h ([1]; liver, three oral doses of 5 mg/kg each, read-out: liver exposure, 4 h): 2.6 µM; Kp at 4 h ([1]; three oral doses of 5 mg/kg each): 2.9; concentration at 4 h ([1]; plasma, three oral doses of 5 mg/kg each, read-out: plasma exposure, 4 h): 0.893 µM; Kp at 12 h ([2]; time point 12 h): 5.7; Kp at 24 h ([2]; time point 24 h): 2.9; blood/plasma exposure ([2]; time point 12 h): 0.21 µM; liver exposure ([2]; time point 12 h): 1.2 µM; blood/plasma exposure ([2]; time point 24 h): 0.04 µM; liver exposure ([2]; time point 24 h): 0.13 µM |
| CCc1nc2ccccc2c(C(=O)N(Cc2ccc(-c3cccc(C(C)(C)C(=O)O)c3)cc2)Cc2ccc(C(F)(F)F)o2)c1C [27/43] | – | – | – | – | – | – | 1000 to 10000 | 44.3 | 32.5 | 1.36 | Kp at 12 h ([2]; time point 12 h): 49; blood/plasma exposure ([2]; time point 12 h): 0.03 µM; liver exposure ([2]; time point 12 h): 1.3 µM |
| COc1ccc2c(c1C(=O)N(Cc1ccc(-c3cccc(C(C)(C)C(=O)O)c3)cc1)Cc1ccc(C(F)(F)F)o1)CCCC2 [27/45] | 320 | 367 | 0.871 | – | – | – | < 100 | – | – | – | – |
| Cc1ccc2ccccc2c1C(=O)N(Cc1ccc(-c2cccc(C(C)(C)C(=O)O)c2)cc1)Cc1ccc(C(F)(F)F)o1 [27/26] | – | – | – | 5.5 | 16 | 89 | < 100 | 44.6 | 2.9 | 15.3 | concentration at 4 h [1, 10]: 6.73 µM; Kp at 4 h [1, 11]: 6.5; concentration at 4 h [1, 12]: 1.04 µM; Kp at 12 h ([2]; time point 12 h): 3.3; Kp at 24 h ([2]; time point 24 h): 3.6; blood/plasma exposure ([2]; time point 12 h): 6.4 µM; liver exposure ([2]; time point 12 h): 21 µM; blood/plasma exposure ([2]; time point 24 h): 0.75 µM; liver exposure ([2]; time point 24 h): 2.7 µM |
| Cc1ccc2ccccc2c1C(=O)N(Cc1ccc(-c2cccc(C(C)(O)C(=O)O)c2)cc1)Cc1ccc(C(F)(F)F)o1 (centres unmarked) [27/10] | 43.3 | 30 | 1.44 | – | – | – | 100 to 1000 | – | – | – | concentration at 4 h ([1]; liver, three oral doses of 3 mg/kg each, read-out: liver exposure, 4 h): 9.93 µM; Kp at 4 h ([1]; three oral doses of 3 mg/kg each): 211; concentration at 4 h ([1]; plasma, three oral doses of 3 mg/kg each, read-out: plasma exposure, 4 h): 0.047 µM; Kp at 12 h ([2]; time point 12 h): 129; blood/plasma exposure ([2]; time point 12 h): 0.01 µM; liver exposure ([2]; time point 12 h): 1.3 µM |
| CC(C)(C(=O)O)c1cccc(-c2ccc(CN(Cc3ccc(C(F)(F)F)o3)C(=O)c3c4ccccc4cc4ccccc34)cc2)c1 [27/47] | – | – | – | – | – | – | < 100 | 38.4 | 36 | 1.07 | – |
| Cc1ccc2ccccc2c1C(=O)N(Cc1ccc(-c2cccc([C@@H](C)C(=O)O)c2)cc1)Cc1ccc(C(F)(F)F)o1 [10/5] | 24.9 | 7.9 | 3.16 | 45 | 1.06 | 47.9 | < 100 | – | – | – | – |
| Cc1ccc2ccccc2c1C(=O)N(Cc1ccc(-c2cccc(C(C)(C)C(=O)O)c2)cc1)Cc1ccc(C(F)F)o1 [27/36] | 80.2 | 26.6 | 3.02 | – | – | – | 100 to 1000 | – | – | – | – |
| Cc1ccc2ccccc2c1C(=O)N(Cc1ccc(-c2cccc(C(C)(C)C(=O)O)c2)cc1)Cc1ccc(C#N)o1 [27/38] | – | – | – | – | – | – | < 100 | 37.5 | 15.8 | 2.37 | – |
| COc1cc(-c2cccc(C(C)(C)C(=O)O)c2)ccc1CN(Cc1ccc(C(F)(F)F)o1)C(=O)c1c(C)ccc2ccccc12 [27/66] | 75.3 | 189 | 0.399 | – | – | – | 100 to 1000 | – | – | – | – |
| Cc1cc(C)c(C(=O)N(Cc2ccc(-c3cccc(C(C)(C)C(=O)O)c3)cc2)Cc2ccc(C(F)(F)F)o2)c(C)c1 [10/1] | – | – | – | – | – | – | 100 to 1000 | – | – | – | – |
| COc1ccc2c(c1CN(Cc1ccc(-c3cccc(C(C)(C)C(=O)O)c3)cc1)Cc1ccc(C(F)(F)F)o1)CCCC2 [27/17] | 6.8 | 2.3 | 2.92 | – | – | – | 100 to 1000 | – | – | – | – |
| Cc1ccc2ccccc2c1C(=O)N(Cc1ccc(C(F)(F)F)o1)Cc1ccc(-c2cccc(C(C)(C)C(=O)O)c2)cc1C#N [27/7] | – | – | – | – | – | – | < 100 | 14.8 | 52.5 | 0.281 | – |
| COc1c(C)nc2ccccc2c1C(=O)N(Cc1ccc(-c2cccc(C(C)(C)C(=O)O)c2)cc1)Cc1ccc(C(F)(F)F)o1 [27/81] | 43.2 | 50.8 | 0.849 | – | – | – | 100 to 1000 | – | – | – | – |
| Cc1nc2cccnc2c(C(=O)N(Cc2ccc(-c3cccc(C(C)(C)C(=O)O)c3)cc2)Cc2ccc(C(F)(F)F)o2)c1C [27/93] | 155 | 73.7 | 2.1 | – | – | – | 100 to 1000 | – | – | – | – |
| Cc1nc2ccccc2c(C(=O)N(Cc2ccc(-c3cccc(C(C)(C)C(=O)O)c3)cc2)Cc2ccc(C(F)(F)F)o2)c1C [27/79] | 36.5 | 39.2 | 0.931 | – | – | – | 100 to 1000 | – | – | – | – |
